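1) Cells in 96-well plates. 2) Compound, 48 h, 5 concentrations. 3) Linear interpolation between surrounding doses. 4) Unreached endpoint = highest concentration. GI50 is the concentration that inhibits growth by half. The concentration for full growth arrest is given as TGI.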
How the values were obtained:
Assay in all cases: inhibition of tumour cell growth, NCI panel, 48 h
BT-549 breast = system: BT-549 breast
786-0 renal = system: 786-0 renal
MOLT-4 leukemia = system: MOLT-4 leukemia
NCI-H522 lung = system: NCI-H522 lung
HOP-92 NSCLC = system: HOP-92 NSCLC
SK-MEL-28 melanoma = system: SK-MEL-28 melanoma
SR leukemia = system: SR leukemia
HCT-15 colon = system: HCT-15 colon
SK-MEL-2 melanoma = system: SK-MEL-2 melanoma
IGROV1 ovarian = system: IGROV1 ovarian

| Compound | GI50 (BT-549 breast) [µM] | TGI (BT-549 breast) [µM] | GI50 (786-0 renal) [µM] | TGI (786-0 renal) [µM] | GI50 (MOLT-4 leukemia) [µM] | TGI (MOLT-4 leukemia) [µM] | GI50 (NCI-H522 lung) [µM] | TGI (NCI-H522 lung) [µM] | GI50 (HOP-92 NSCLC) [µM] | TGI (HOP-92 NSCLC) [µM] | GI50 (SK-MEL-28 melanoma) [µM] | TGI (SK-MEL-28 melanoma) [µM] | GI50 (SR leukemia) [µM] | TGI (SR leukemia) [µM] | GI50 (HCT-15 colon) [µM] | TGI (HCT-15 colon) [µM] | GI50 (SK-MEL-2 melanoma) [µM] | TGI (SK-MEL-2 melanoma) [µM] | GI50 (IGROV1 ovarian) [µM] | TGI (IGROV1 ovarian) [µM] |
| --- | --- | --- | --- | --- | --- | --- | --- | --- | --- | --- | --- | --- | --- | --- | --- | --- | --- | --- | --- | --- |
| Clc1ccc(OCc2nnc3n2N=C(c2ccc(Cl)cc2Cl)CS3)c(Cl)c1 | 22.4 | 59.4 | 28.5 | 98.8 | 22.8 | > 100 | 14.5 | 37.6 | 19.6 | 89.2 | 22.6 | 57 | 17.3 | 46.5 | 12.7 | 33.2 | 25.1 | 57 | 20 | 52.9 |
| Cc1ncc(NC(=O)c2ccc(CN3CCN(C)CC3)c(C(F)(F)F)c2)cc1Nc1nccc(-c2cccnc2)n1 | 18.1 | 32.7 | 15.9 | 29.7 | 14.9 | 49.6 | 17.2 | 33.8 | 4.5 | 21 | 12.7 | 25.4 | 2.9 | 47.8 | 13.6 | 29.7 | 14.7 | 29.4 | 10.7 | 24.4 |
| CN1CCN(Cc2ccc(NC(=O)c3ccc(C(C)(C)C)c(C#Cc4cnc5cccnn45)c3)cc2C(F)(F)F)CC1 | 15 | 28.9 | 1.67 | 3.24 | 1.77 | 4 | 2.2 | 3.95 | 12.1 | 27.1 | 1.93 | 3.73 | 0.199 | 0.512 | 1.21 | 2.66 | 8.8 | 22.5 | 2.55 | 6.99 |
| COC(=O)C(Cc1ccccc1)N/C=C\C(=O)c1ccc(Cl)cc1 (stereo not given) | 28.1 | > 100 | 23.6 | 61.9 | 35.2 | > 100 | 32.5 | > 100 | 43.7 | > 100 | 45.4 | > 100 | 48.1 | > 100 | 23.6 | 59.3 | 59.9 | > 100 | > 100 | > 100 |
| CNc1nc(NC2CCCC2)nc(Sc2ccc(OC)cc2)n1 | > 10 | > 10 | > 10 | > 10 | > 10 | > 10 | > 10 | > 10 | 1.09 | 9.5 | > 10 | > 10 | > 10 | > 10 | > 10 | > 10 | > 10 | > 10 | > 10 | > 10 |
| Cc1c(C(=O)NN)nnn1-c1ccnc2c(C(F)(F)F)cccc12 | > 100 | > 100 | > 100 | > 100 | > 100 | > 100 | > 100 | > 100 | > 100 | > 100 | > 100 | > 100 | > 100 | > 100 | > 100 | > 100 | > 100 | > 100 | > 100 | > 100 |
| N#Cc1c(-c2ccccc2)nc2c(c(-c3ccccc3)nn2-c2ccccc2)c1-c1ccc(O)cc1 | 2 | 4.45 | 2.16 | 5.35 | 2.48 | 7.86 | 2.32 | 6.03 | 2.06 | 4.21 | 1.58 | 3.05 | 2.95 | > 100 | 1.62 | 3.79 | 2.39 | 5.65 | 1.8 | 3.62 |
| COc1ccc2c(c1)[C@@]13CCN4CC5=CCO[C@H]6CC(=O)N2[C@H]1[C@H]6[C@H]5C[C@H]43 | – | > 100 | – | > 100 | – | > 100 | – | > 100 | – | > 100 | – | > 100 | – | > 100 | – | > 100 | – | > 100 | – | > 100 |
| Oc1c(Br)cc(CN(Cc2cc(Br)c(O)c(Br)c2)C2CCCCC2)cc1Br | – | > 100 | – | > 100 | – | > 100 | – | > 100 | – | > 100 | – | > 100 | – | > 100 | – | > 100 | – | > 100 | – | > 100 |
| CCN(CCO)CCNc1ccc(C)c2sc3cc(Cl)ccc3c(=O)c12 | 3.78 | 14 | 1.41 | 2.84 | 1.27 | 3.01 | 1.56 | 3.21 | 1.56 | 8.94 | 1.64 | 3.23 | 0.751 | 2.78 | 0.538 | 1.85 | 1.78 | 3.56 | 1.64 | 3.39 |
| CCCCCCNc1nc(NCCCCCC)c2[nH]c(NCCCCCC)nc2n1 | 7.47 | 25.1 | 14.5 | 27.6 | 3.12 | 35.4 | 2.14 | 7.68 | 5.43 | 16.9 | 12.1 | 24.6 | 0.582 | 3.43 | 10.7 | > 51.7 | 11.5 | 28.7 | 19 | > 53.2 |
| COc1ccc(C2C(C#N)=C(N)OC3=C2CCCc2ccc(F)cc23)cc1OC (stereo not given) | 19.4 | 42.5 | 14.7 | 29.8 | > 38.2 | > 66.9 | 17.8 | 37.6 | 17.1 | 42.4 | 24.5 | > 62.4 | > 100 | > 100 | 17.8 | 38 | 21.2 | 57.9 | 18.3 | 46.3 |
| CS(=O)(=O)Nc1ccc(-c2ccc3c(NC(=O)C4CC4)n[nH]c3c2)cc1 | > 19.2 | > 25 | > 25 | > 25 | > 15.7 | > 25 | > 25 | > 25 | > 25 | > 25 | > 25 | > 25 | > 21.2 | > 25 | > 25 | > 25 | > 18.5 | > 25 | > 25 | > 25 |
| CCCCCC(=O)Oc1ccc(/C(=C(\C)c2ccc(OC)cc2)c2ccc(OCCN3CCCCC3)cc2)cc1 | 10.7 | 23.2 | 1.98 | 5.61 | 3.54 | 18.8 | 14.4 | 30.5 | 3.83 | 17 | 3.6 | 12.8 | 2.71 | 22.2 | 2.92 | 10.2 | 10.5 | 23.8 | 10.4 | 25.9 |

From PubChem BioAssay (NCI)
